Source: ChEMBL document CHEMBL5465560, “Selectivity Literature for EUbOPEN Chemogenomic Library” (2024)

How the values were obtained:
[1] = target: Mitogen-activated protein kinase 14 (Homo sapiens, UniProt Q16539); experiment: Selectivity interaction (Kinase panel (DSF assay)) EUB0001558a MAPK14
[2] = target: Myosin light chain kinase, smooth muscle (Homo sapiens, UniProt Q15746); experiment: Selectivity interaction (KinomeScan (DiscoverX)) EUB0000229b MYLK; details: at 10 µM
[3] = target: Fibroblast growth factor receptor 4 (Homo sapiens, UniProt P22455); experiment: Selectivity interaction (KinomeScan (DiscoverX)) EUB0000229b FGFR4; details: at 10 µM
Sequence of Fibroblast growth factor receptor 4 (P22455 22-802 limits assumed): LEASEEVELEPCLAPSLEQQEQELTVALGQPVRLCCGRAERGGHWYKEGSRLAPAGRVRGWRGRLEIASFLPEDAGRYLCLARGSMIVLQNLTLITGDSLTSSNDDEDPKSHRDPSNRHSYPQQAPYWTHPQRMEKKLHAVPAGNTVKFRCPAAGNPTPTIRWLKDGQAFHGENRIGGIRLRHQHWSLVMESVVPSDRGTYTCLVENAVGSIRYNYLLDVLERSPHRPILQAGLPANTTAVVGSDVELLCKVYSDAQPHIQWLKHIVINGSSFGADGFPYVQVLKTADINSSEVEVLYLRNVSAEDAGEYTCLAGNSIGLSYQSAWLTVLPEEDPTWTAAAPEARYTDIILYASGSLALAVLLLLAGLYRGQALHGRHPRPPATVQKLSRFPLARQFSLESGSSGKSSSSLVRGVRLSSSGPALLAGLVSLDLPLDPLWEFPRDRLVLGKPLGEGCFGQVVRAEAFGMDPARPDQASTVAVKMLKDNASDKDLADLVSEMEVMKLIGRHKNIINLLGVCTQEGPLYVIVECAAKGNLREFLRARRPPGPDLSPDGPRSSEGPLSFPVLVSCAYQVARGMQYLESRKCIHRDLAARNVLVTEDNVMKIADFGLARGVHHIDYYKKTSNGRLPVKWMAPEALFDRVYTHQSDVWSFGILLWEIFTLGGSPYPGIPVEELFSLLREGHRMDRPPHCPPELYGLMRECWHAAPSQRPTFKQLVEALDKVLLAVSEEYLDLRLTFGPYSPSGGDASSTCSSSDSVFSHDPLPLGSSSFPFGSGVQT

[4] = target: T1, Beta-adrenergic receptor kinase 1 (Homo sapiens) (UniProt P25098); experiment: Selectivity interaction (Kinase panel (KiNativ target engagement assay in Jurkat cells)) EUB0001635a ADRBK1; format: cell-based; details: Selectivity number of off-targets 0.0, Selectivity number of targets 233.0, Source Knowledge https://www.sciencedirect.com/science/article/pii/S2451945619300674?via%3Dihub, at 1 µM
T1 sequence (whole entry): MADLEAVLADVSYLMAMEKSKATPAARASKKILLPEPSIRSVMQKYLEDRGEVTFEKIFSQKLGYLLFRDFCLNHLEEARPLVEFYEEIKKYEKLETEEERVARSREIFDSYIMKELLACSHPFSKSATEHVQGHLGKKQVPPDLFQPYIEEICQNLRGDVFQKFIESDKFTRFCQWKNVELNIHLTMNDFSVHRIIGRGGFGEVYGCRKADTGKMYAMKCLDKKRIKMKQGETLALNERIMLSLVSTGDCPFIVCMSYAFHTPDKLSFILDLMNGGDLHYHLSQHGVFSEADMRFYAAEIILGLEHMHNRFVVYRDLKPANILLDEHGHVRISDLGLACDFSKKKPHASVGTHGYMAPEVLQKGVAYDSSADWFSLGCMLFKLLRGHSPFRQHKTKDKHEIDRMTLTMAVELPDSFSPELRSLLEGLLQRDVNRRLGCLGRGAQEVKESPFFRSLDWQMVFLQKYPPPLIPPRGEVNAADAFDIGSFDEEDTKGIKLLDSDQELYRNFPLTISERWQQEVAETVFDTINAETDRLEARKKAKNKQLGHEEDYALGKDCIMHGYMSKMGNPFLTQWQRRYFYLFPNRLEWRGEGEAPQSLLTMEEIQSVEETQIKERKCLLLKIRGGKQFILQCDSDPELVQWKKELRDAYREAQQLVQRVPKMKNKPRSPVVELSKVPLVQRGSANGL

[5] = target: T2, Ephrin type-B receptor 4 (Homo sapiens) (UniProt P54760); experiment: Selectivity interaction (Millipore kinase profiler) EUB0000124b EPHB4; details: at 10 µM
T2 sequence (whole entry): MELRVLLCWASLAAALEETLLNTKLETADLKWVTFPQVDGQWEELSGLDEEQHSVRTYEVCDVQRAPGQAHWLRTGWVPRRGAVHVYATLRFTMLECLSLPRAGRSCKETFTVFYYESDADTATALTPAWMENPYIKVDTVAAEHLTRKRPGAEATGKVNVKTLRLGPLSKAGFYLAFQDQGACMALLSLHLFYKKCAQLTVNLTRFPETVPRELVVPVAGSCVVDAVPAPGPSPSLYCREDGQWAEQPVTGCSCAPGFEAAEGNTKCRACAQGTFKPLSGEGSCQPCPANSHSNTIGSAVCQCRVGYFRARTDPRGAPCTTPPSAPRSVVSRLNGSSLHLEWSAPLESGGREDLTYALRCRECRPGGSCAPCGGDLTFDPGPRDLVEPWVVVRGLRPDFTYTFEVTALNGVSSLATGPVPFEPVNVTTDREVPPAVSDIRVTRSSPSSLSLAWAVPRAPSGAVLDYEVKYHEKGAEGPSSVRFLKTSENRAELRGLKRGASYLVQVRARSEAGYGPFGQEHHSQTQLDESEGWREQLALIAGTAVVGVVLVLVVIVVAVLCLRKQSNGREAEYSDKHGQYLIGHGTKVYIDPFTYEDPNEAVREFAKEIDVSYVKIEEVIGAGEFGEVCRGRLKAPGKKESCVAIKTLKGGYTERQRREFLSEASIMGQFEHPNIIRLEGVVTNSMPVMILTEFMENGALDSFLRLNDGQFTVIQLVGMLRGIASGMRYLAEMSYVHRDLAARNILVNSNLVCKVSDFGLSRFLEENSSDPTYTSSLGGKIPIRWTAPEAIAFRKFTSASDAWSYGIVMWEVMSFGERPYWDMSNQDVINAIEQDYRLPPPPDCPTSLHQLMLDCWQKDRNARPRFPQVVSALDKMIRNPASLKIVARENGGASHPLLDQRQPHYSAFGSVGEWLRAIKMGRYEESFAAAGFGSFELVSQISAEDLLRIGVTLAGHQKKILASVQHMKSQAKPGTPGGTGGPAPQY

[6] = target: Proto-oncogene tyrosine-protein kinase Src (Homo sapiens, UniProt P12931); experiment: Selectivity interaction (KinaseProfiler screening (Millipore)) EUB0000601a SRC; details: at 3 µM
Sequence of Proto-oncogene tyrosine-protein kinase Src (P12931 2-536 limits assumed): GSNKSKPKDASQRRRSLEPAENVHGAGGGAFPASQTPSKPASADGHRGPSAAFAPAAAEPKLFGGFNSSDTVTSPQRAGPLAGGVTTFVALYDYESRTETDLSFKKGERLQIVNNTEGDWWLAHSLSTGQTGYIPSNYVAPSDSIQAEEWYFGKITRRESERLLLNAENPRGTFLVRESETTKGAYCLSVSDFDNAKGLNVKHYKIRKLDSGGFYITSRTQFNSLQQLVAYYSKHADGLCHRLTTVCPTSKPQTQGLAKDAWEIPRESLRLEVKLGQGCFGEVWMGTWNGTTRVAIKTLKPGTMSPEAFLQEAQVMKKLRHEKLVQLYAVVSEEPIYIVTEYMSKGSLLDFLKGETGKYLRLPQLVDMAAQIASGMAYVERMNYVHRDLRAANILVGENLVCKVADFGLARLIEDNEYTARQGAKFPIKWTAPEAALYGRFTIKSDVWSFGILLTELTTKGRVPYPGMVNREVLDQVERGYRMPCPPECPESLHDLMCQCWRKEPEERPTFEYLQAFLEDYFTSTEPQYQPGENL

[7] = target: Fibroblast growth factor receptor 1 (Homo sapiens, UniProt P11362); experiment: Selectivity interaction (KinomeScan (DiscoverX)) EUB0001049a FGFR1; details: at 1 µM
Sequence of Fibroblast growth factor receptor 1 (P11362 22-822 limits assumed): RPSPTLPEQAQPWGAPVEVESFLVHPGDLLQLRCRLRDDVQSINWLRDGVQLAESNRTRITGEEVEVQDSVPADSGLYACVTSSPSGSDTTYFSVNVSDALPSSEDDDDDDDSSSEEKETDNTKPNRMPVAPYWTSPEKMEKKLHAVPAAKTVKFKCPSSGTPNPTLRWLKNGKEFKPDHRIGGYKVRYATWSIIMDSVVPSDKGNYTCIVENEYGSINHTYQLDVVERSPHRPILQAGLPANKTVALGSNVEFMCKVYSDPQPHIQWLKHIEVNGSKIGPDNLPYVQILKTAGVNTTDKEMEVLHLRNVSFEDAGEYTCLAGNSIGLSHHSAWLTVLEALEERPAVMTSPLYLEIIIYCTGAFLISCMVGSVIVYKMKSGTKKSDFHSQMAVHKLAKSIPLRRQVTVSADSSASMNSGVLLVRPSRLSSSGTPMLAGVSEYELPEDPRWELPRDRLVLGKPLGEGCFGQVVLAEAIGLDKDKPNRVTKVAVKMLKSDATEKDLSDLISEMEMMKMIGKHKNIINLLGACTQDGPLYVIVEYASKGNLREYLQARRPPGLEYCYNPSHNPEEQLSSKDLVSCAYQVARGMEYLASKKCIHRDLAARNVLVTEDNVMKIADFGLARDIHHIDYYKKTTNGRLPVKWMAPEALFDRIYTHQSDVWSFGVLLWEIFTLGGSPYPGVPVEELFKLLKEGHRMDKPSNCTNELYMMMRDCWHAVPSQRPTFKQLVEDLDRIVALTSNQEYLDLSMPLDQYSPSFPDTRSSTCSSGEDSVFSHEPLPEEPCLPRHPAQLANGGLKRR

Histamine H1 receptor = Histamine H1 receptor (Homo sapiens, UniProt P35367); experiment: Selectivity interaction (Panel of non-epigenetic targets (kinases, GPCRs, ion channels, and transporters, Eurofins) ) EUB0000271b HRH1; details: at 1 µM
[8] = target: T3, Dual specificity mitogen-activated protein kinase kinase 6 (Homo sapiens) (UniProt P52564); experiment: Selectivity interaction (KinomeScan (DiscoverX)) EUB0000595a MAP2K6; details: at 10 µM
T3 sequence (whole entry): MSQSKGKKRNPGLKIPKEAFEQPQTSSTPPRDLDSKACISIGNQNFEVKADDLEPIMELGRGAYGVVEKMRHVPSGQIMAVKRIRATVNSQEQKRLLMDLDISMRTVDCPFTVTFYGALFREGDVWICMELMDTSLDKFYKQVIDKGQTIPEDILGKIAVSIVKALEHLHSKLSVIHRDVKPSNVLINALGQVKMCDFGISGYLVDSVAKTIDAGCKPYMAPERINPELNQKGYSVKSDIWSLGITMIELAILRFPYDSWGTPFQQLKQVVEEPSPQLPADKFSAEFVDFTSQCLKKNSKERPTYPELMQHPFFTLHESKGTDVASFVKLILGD

[9] = target: Adenosine receptor A3 (Homo sapiens) (UniProt P0DMS8); experiment: Selectivity interaction (Eurofins CEREP Diversity Profile (receptors and ion channels)) EUB0000279b ADORA3; details: at 10 µM
Sequence of Adenosine receptor A3 (Homo sapiens) (P0DMS8 whole entry): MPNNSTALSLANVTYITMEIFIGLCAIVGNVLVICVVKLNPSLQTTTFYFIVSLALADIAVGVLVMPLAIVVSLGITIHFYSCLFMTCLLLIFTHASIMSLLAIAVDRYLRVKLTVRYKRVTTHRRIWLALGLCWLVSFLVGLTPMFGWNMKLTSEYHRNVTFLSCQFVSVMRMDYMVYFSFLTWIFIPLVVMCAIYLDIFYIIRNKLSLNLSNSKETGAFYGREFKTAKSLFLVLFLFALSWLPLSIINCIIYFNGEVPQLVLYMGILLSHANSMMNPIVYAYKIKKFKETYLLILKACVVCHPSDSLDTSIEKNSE

Sequence of Mitogen-activated protein kinase 14 (Q16539 whole entry): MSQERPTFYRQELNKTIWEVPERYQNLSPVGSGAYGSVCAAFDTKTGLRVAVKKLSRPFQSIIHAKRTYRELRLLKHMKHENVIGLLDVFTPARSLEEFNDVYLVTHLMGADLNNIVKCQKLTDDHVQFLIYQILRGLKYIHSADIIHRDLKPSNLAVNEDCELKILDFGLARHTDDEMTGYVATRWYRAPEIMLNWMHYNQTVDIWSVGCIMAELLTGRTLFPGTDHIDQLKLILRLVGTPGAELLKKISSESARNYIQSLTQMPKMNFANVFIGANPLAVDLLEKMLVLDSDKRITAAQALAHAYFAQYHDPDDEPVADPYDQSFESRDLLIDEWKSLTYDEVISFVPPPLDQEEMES
Sequence of Myosin light chain kinase, smooth muscle (Q15746 whole entry): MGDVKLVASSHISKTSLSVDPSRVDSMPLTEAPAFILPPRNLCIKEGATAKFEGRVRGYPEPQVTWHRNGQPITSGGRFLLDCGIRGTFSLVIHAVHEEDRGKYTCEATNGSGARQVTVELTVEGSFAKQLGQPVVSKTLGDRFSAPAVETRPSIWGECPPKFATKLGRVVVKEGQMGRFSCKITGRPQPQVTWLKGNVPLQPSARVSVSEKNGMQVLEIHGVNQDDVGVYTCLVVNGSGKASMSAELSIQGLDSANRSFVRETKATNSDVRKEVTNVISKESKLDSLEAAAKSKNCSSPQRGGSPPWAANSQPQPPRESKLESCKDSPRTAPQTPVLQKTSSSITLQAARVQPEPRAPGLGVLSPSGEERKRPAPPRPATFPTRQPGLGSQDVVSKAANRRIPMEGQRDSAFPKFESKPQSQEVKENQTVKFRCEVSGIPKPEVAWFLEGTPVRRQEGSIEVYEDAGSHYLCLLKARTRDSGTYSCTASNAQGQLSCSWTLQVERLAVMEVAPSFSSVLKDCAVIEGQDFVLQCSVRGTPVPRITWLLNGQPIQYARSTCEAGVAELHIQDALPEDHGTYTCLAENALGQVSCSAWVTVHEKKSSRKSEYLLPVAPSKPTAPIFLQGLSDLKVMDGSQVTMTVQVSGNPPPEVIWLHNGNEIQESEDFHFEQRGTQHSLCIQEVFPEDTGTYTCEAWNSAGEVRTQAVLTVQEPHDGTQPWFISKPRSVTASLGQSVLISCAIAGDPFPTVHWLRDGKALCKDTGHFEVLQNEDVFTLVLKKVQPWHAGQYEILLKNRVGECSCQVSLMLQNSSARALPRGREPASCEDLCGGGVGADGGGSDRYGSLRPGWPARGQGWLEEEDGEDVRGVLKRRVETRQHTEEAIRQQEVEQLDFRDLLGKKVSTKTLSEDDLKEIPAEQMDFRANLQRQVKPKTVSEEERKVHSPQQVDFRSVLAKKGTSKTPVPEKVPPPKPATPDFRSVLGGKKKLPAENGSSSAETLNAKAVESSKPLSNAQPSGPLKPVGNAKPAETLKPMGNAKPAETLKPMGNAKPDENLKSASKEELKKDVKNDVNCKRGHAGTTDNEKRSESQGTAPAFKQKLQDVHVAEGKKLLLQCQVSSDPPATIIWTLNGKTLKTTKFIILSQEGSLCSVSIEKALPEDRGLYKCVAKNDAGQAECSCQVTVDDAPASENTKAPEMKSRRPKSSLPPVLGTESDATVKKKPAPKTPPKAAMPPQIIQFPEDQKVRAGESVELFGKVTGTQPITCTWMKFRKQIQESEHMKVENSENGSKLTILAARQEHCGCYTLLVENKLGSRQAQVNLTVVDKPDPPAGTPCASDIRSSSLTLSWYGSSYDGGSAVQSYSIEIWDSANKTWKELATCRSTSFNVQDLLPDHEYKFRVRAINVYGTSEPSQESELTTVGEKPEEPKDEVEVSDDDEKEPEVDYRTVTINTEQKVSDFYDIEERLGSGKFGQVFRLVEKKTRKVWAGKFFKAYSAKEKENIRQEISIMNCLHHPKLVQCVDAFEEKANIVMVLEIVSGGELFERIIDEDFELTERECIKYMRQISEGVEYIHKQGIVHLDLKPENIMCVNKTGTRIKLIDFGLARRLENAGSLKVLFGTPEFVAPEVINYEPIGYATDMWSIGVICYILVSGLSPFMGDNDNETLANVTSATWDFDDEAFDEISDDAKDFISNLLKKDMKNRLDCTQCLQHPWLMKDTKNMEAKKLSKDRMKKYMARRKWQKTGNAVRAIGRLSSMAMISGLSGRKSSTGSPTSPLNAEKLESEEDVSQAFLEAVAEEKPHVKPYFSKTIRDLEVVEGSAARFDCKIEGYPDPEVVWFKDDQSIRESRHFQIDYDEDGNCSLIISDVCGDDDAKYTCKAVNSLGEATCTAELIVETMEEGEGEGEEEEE

SMILES: CC(C)(O)[C@H](F)CN1Cc2cc(NC(=O)c3cnn4cccnc34)c(N3CCOCC3)cc2C1=O
- dTM [1]: 0.3 K

SMILES: COc1cc(N(C)c2ccnc3ccc(C(F)(F)F)cc23)cc(OC)c1OC
- % binding [2]: 92%
- % binding [3]: 100%

SMILES: C=CC(=O)Nc1ccc(C(=O)Nc2[nH]nc3c2CN(C(=O)N[C@H](CN(C)C)c2ccccc2)C3(C)C)cc1
- % of engagement [4]: -2.6%

SMILES: CC(=O)Nc1cccc(-n2c(=O)n(C3CC3)c(=O)c3c(Nc4ccc(I)cc4F)n(C)c(=O)c(C)c32)c1
- % of control [5]: 124%

SMILES: CCc1cc(Nc2nccc(-c3c(-c4ccc(OC)c(C(=O)Nc5c(F)cccc5F)c4)nc4ccccn34)n2)c(OC)cc1N1CCC(N2CCN(S(C)(=O)=O)CC2)CC1
- % of inhibition [6]: 43%

SMILES: COc1cc(Nc2nc(C)cc(-c3cnn4nc(OC)ccc34)n2)cc(C(F)(F)F)c1
- % of control [7]: 98%

SMILES: Cc1cc(C)cc([C@@H]2c3cc(C)ccc3NC(=O)CN2C(=O)c2ccc(Br)s2)c1
- % of inhibition (Histamine H1 receptor): 0%

SMILES: COCC(=O)NC/C=C/c1ccc2ncnc(Nc3ccc(Oc4ccc(C)nc4)c(C)c3)c2c1 [CP-724714]
- % of control [8]: 93%

SMILES: CC(=O)c1cc(-c2ccccc2OCC2CC2)c2ncccn12
- % of control [9]: 23%
